These are literature values, as cited in US6955827B2, “Method of controlling release of antimicrobial agents in chewing gum” (Wm. Wrigley Jr. Company, priority 1997, dated 2005).

The structures appear in SMILES notation.

For the series the following is noted: at 25° C.
As to `CCCCCCCCCCCCCCCC[n+]1ccccc1` [Cetylpyridinium chloride, cetylpyridinium chloride], the water solubility is recorded as 33%.

For the compound `Oc1cc(Cl)ccc1Oc1ccc(Cl)cc1Cl` [Triclosan, 2,4,4-trichloro-2-hydroxydiphenyl ether], the water solubility entry is recorded as “about 0.05%”.

In the case of `CCCCCCc1ccc(O)cc1O` [Hexylresorcinol, hexylresorcinol], the water solubility entry was “about 0.05%”.

In the case of `N=C(NCCCCCCNC(=N)NC(=N)Nc1ccc(Cl)cc1)NC(=N)Nc1ccc(Cl)cc1.O=C(O)[C@H](O)[C@@H](O)[C@H](O)[C@H](O)CO.O=C(O)[C@H](O)[C@@H](O)[C@H](O)[C@H](O)CO` [Chlorhexidine digluconate, chlorhexidine digluconate], the water solubility was 50%.
